Source: US10450258B2, “Substituted aromatic compounds for the treatment of pulmonary fibrosis, liver fibrosis, skin fibrosis and cardiac fibrosis” (PROMETIC PHARMA SMT LIMITED, priority 2013, dated 2019)
Counter-ions that a name gives are not always drawn.

Columns and labels:
[1] = system: collagen 1 mRNA in HK-2 cells (epithelial cells); assay: Inhibition of collagen mRNA in TGF-β-treated HK-2 epithelial cells; type: cell-based; conditions: for inhibition at 500 µM: HK-2, compound 0.5 mM; for Collagen HK-2 cells % inhibition: compound 0.25 mM
Description: (§1) CTGF, collagen 1 and α-SMA are fibrotic markers produced by activated fibroblasts and by epithelial cells that undergo to epithelial-mesenchymal transition (EMT).
(§2) Table 2: Percentage of inhibition of collagen in epithelial cells (HK2 cells) and fibroblasts (NHDF) and percentage of inhibition of α-SMA in fibroblasts (NRK-49F and NHDF) has been determined for several compounds according the invention. In all cases, the mRNA of collagen and α-SMA has been measured, and the inhibition was evaluated in presence of a respective concentration of the tested compound. The compounds have been tested at different concentrations [mM]. All compounds reduce the expression of collagen and α-SMA in HK-2, NHDF and NRK-49F cells.

[2] = system: collagen 1 mRNA in NHDF cells; assay: Inhibition of collagen mRNA in TGF-β-activated NHDF fibroblasts; type: cell-based; conditions: Homo sapiens, compound 0.5 mM
Description: as §1, §2

[3] = system: α-SMA mRNA in NRK-49F cells; assay: Inhibition of α-SMA mRNA in TGF-β-activated NRK-49F fibroblasts; type: cell-based, rat
Description: as §1, §2

[4] = system: bleomycin-induced pulmonary fibrosis mouse model; assay: Bleomycin-induced pulmonary fibrosis mouse model: body weight and lung histology; type: in vivo, mouse (male C57BL6); conditions: oral, Compound I 200 mg/kg, pirfenidone 400 mg/kg
Description: Intratracheal instillation of the anticancer drug bleomycin into the mouse results in acute inflammation followed by a chronic fibrotic response. Therefore, evaluation of candidate antifibrotic drugs such as Compound I can be undertaken by treatment of the mice at appropriate time points and histologic, biochemical and cellular readouts may be used to monitor candidate drug efficacy in this model.
(§3) Male C57BL6 mice are administered intratracheal instillation of bleomycin sulphate (0.025 U) at day 0, randomized and administered Compound I (oral administration, 100 mg/kg and 200 mg/kg) on day 7 to day 20.
Lesions score was evaluated using HEP (Hemalun with Eosin/Ploxine) and Masson's trichrome staining. Lesions score was recorded as 1) Consolidation as shown by disrupted lung architecture (cellular and/or fibrosis) and 2) Alveolar wall as shown by thickness and shrinking outside of consolidated area.
(§4) It was therefore evaluated side-by-side with Compound I in the bleomycin-induced pulmonary fibrosis mouse model by the same protocol described in Example 4 above. Compound I (200 mg/kg) and pirfenidone (400 mg/kg) were orally administered either alone or in combination.
Lesions score was evaluated using HEP (Hemalun with Eosin/Ploxine) and Masson's trichrome staining and recorded as 1) Consolidation as shown by disrupted lung architecture (cellular and/or fibrosis), and 2) Alveolar wall as shown by thickness and shrinking outside of consolidated area.
The lesions score as determined by the percentage of leukocyte infiltration (inflammatory zone) multiplied by the percentage of collagen found in the leukocyte infiltrate was quantified by histomorphometry using Masson's trichrome staining.
Visual grading of pulmonary fibrosis was also determined according to Ashcroft's score. Briefly, the entire fields of each lung section were read by a blinded examiner, and each field was visually graded from 0 to 8. Criteria for grading lung fibrosis were as follows: Grade 0=normal lung; Grade 1=minimal fibrous thickening of alveolar or bronchiolar walls; Grade 3=moderate thickening of walls without obvious damage to lung architecture; Grade 5=increased fibrosis with definitive damage to lung structure and formation of fibrous bands or small fibrous masses; Grade 7=severe distortion of structure and large fibrous area; Grade 8=total fibrous obliteration of lung fields.

[5] = system: TGF-β, CTGF, IL-23p19, IL-6, collagen 1, fibronectin (FN-1), collagen 3 mRNA in lung tissue; assay: Real-time PCR of inflammatory and fibrotic marker mRNA in lung tissue, bleomycin-induced pulmonary fibrosis mouse model; type: in vivo, mouse (male C57BL6); conditions: oral, Compound I 200 mg/kg, pirfenidone 400 mg/kg, alone or combined
Description: as §3
Further analysis of the lung tissue was undertaken. CTGF, collagen 1 and IL-23p19 mRNA expression was quantified by real-time PCR.
as §4
In order to determine the effect of Compound I on pulmonary fibrosis, further analysis of the lung tissue was undertaken. TGF-β, CTGF, IL-23 and IL-6 mRNA expression was quantified by real-time PCR. […] Oral administration of pirfenidone had no effect on CTGF mRNA expression but decreased TGF-β, IL-23 and IL-6 mRNA expression. […]

[6] = Toxicity related to drug in the bleomycin-induced pulmonary fibrosis mouse model; type: in vivo; conditions: oral, Compound I 200 mg/kg, pirfenidone 400 mg/kg, alone or in combination, solubilized in PBS
Description: as §4
Compound I and pirfenidone were solubilized in PBS. In the combination therapy, pirfenidone was solubilized in a solution of Compound I. No toxicity was reported with Compound I treatment.

[7] = Rattus norvegicus, NRK-49F, compound 0.5 mM
[8] = Rattus norvegicus, NRK-49F, compound 0.25 mM

## CCCCCc1cc(O)cc(CC(=O)O)c1 [Compound II, Sodium Salt of 3-hydroxy-5-pentylphenylacetic acid]
[1]; Homo sapiens
  inhibition at 500 µM: 43%
[2]
  inhibition at 500 µM: 40%
[3]; [7]
  inhibition at 500 µM: 66%

## CCCCCc1cc(F)cc(CC(=O)O)c1 [Compound III, Sodium Salt of 3-fluoro-5-pentylphenylacetic acid]
[1]; Homo sapiens
  inhibition at 500 µM: 100%
[3]; [8]
  inhibition at 250 µM: 100%

## CCC/C=C/c1cccc(CC(=O)O)c1 [Compound IV, Sodium Salt of E-(3-pent-1-enyl-phenyl)acetic acid]
[3]; [7]
  inhibition at 500 µM: 64%

## CCCCCc1cccc(C(F)C(=O)[O-])c1.[Na+] (stereo not shown) [Compound IX, Sodium Salt of 2-Fluoro-2-(3-pentylphenyl)acetic acid]
[3]; compound 0.5 mM
  α-SMA NRK-49F cells % inhibition: 82%

## CCCCCc1cc(CCC(=O)O)ccc1F [Compound VI, Sodium Salt of 3-(4-fluoro-3-pentylphenyl)propionic acid]
[3]; Rattus norvegicus, NRK-49F, compound 0.125 mM
  inhibition at 125 µM: 90%

## CCCCCc1cccc(CCC(=O)[O-])c1.[Na+] [Compound VII, Sodium Salt of 3-(3-pentylphenyl)propionic acid]
[3]; compound 0.25 mM
  α-SMA NRK-49F cells % inhibition: 100%

## CCCCCc1cccc(C(C)C(=O)[O-])c1.[Na+] (stereo not shown) [Compound VIII, Sodium Salt of 2-(3-pentylphenyl)propionic acid]
[3]; compound 0.25 mM
  α-SMA NRK-49F cells % inhibition: 86%

## CCCCCc1cccc(C(C)(C)C(=O)[O-])c1.[Na+] [Compound X, Sodium Salt of 2-methyl-2-(3-pentylphenyl)propionic acid]
[3]; compound 0.1 mM
  α-SMA NRK-49F cells % inhibition: 46%

## CCCCCCc1cccc(CC(=O)O)c1 [Compound XI, Sodium Salt of 2-(3-Hexylphenyl)acetic acid]
[3]; Rattus norvegicus, NRK-49F, compound 0.1 mM
  inhibition at 100 µM: 80%

## CCCCC=Cc1cccc(CC(=O)[O-])c1.[Na+] [Compound XII, Sodium Salt of 2-(3-(Hex-1-enyl)phenyl)acetic acid]
[3]; compound 0.1 mM
  α-SMA NRK-49F cells % inhibition: 49%

## CCCC=Cc1ccc(F)c(CC(=O)[O-])c1.[Na+] [Compound XIII, Sodium Salt of 2-(2-Fluoro-5-(pent-1-enyl)phenyl)acetic acid]
[3]; compound 0.5 mM
  α-SMA NRK-49F cells % inhibition: 84%

## CCCCCc1cc(CC(=O)O)ccc1O [Compound XIV, Sodium Salt of 2-(4-Hydroxy-3-pentylphenyl)acetic acid]
[1]; Homo sapiens
  inhibition at 500 µM: 72%
[2]
  inhibition at 500 µM: 26%
[3]; [7]
  inhibition at 500 µM: 92%

## CCCCCc1cccc(CC(=O)[O-])c1O.[Na+] [Compound XIX, Sodium Salt of 2-(2-Hydroxy-3-pentylphenyl)acetic acid]
[1]
  Collagen HK-2 cells % inhibition: 100%
[3]; compound 0.25 mM
  α-SMA NRK-49F cells % inhibition: 100%

## CCCCCc1cc(CC(=O)O)ccc1F [Compound XV, Sodium Salt of 2-(4-Fluoro-3-pentylphenyl)acetic acid]
[1]; Homo sapiens
  inhibition at 500 µM: 100%
[3]; [7]
  inhibition at 500 µM: 100%

## CCCCCc1cccc(CC(=O)O)c1F [Compound XVI, Sodium Salt of 2-(2-Fluoro-3-pentylphenyl)acetic acid]
[1]; Homo sapiens
  inhibition at 500 µM: 100%
[3]; [8]
  inhibition at 250 µM: 100%

## CCCCCc1cc(CCC(=O)[O-])ccc1O.[Na+] [Compound XVII, Sodium Salt of 3-(4-Hydroxy-3-pentylphenyl)propanoic acid]
[1]
  Collagen HK-2 cells % inhibition: 0%
[3]; compound 0.5 mM
  α-SMA NRK-49F cells % inhibition: 66%

## CCCCCc1cccc(C(=O)C(=O)[O-])c1.[Na+] [Compound XVIII, Sodium Salt of 2-Oxo-2-(3-pentylphenyl)acetic acid]
[3]; compound 0.25 mM
  α-SMA NRK-49F cells % inhibition: 100%

## CCCCCc1cc(O)c(Cc2ccccc2)c(CC(=O)O)c1 [Compound XX, Sodium Salt of 2-(2-Benzyl-3-hydroxy-5-pentylphenyl)acetic acid]
[1]; Homo sapiens, HK-2, compound 0.125 mM
  inhibition at 125 µM: 73%
[3]; Rattus norvegicus, NRK-49F, compound 0.0625 mM
  inhibition at 62.5 µM: 95%

## Cc1ccc(=O)n(-c2ccccc2)c1 [Pirfenidone, pirfenidone, reference compound]
[4]; alone or combined, FIG. 8
  histological lesion score of lungs (HEP and Masson's trichrome): no reduction of fibrosis at the histological level
[4]; alone or combined, FIG. 11
  visual grading of pulmonary fibrosis (Ashcroft's score): weak activity
[4]; FIG. 10
  lesions and fibrosis in lungs (photomicrographs stained with HEP): no effect
[5]; FIG. 12
  TGF-β mRNA expression in lungs: decreased
[5]; FIG. 13
  CTGF mRNA expression in lungs: no effect
[5]; FIG. 14
  IL-23 mRNA expression in lungs: decreased
[5]; FIG. 15
  IL-6 mRNA expression in lungs: decreased
[5]; FIG. 18
  collagen 3 mRNA expression in lungs: no effect
[5]; reduction to the control level, FIG. 16
  collagen 1 mRNA expression in lungs: significant reduction
[5]; reduction to the control level, FIG. 17
  fibronectin (FN-1) mRNA expression in lungs: significant reduction
[6]
  Toxicity related to drug: Vertigo ++++
[6]; listed as pirfenidone
  Toxicity related to drug: severe vertigo
